Measurements as given in PMC12350525, “Investigation of the inhibitory effects of the telomere-targeted compounds on glutathione S-transferase P1” (Naunyn-Schmiedeberg's Archives of Pharmacology, 2025).
Read-outs that look alike come from different tables or passages of the source.

Experiments:
GSTP1-1 = target: T1, GSTP1-1 (Homo sapiens, UniProt P09211); experiment: Kinetic inhibition studies with GSTP1 (Lineweaver-Burk, varied GSH or CDNB); type: biochemical
T1 construct: made in house; host or cells: E. coli XL-1 Blue
T1 sequence (P09211 whole entry): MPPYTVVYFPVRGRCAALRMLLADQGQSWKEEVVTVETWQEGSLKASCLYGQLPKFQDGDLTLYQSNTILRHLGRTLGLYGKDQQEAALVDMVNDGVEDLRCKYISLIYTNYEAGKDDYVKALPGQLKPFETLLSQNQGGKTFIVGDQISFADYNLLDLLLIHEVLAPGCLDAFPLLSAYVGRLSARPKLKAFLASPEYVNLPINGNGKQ
Description: To assess the inhibition type and calculate the inhibition constant (Ki) values for the compounds, kinetic inhibition studies were performed with GSTP1.
By varying the concentration of one substrate while keeping the other at near-saturation, we assessed how each inhibitor interacted with GSTP1 under various substrate conditions. Lineweaver-Burk plots were used to analyze these interactions, allowing for the determination of the inhibition type (e.g., competitive, non-competitive, or mixed) and the Ki values for each compound. These kinetic parameters were calculated using GraphPad Prism, providing a comprehensive understanding of how the inhibitors influence GSTP1 enzymatic activity.
These plots were generated by varying the concentrations of substrates GSH and CDNB with different inhibitor concentrations.

recombinant human GSTP1 = target: T2, recombinant human GSTP1 (Homo sapiens, UniProt P09211); experiment: GSTP1 enzyme inhibition assay (GSH-CDNB conjugation, spectrophotometric); type: biochemical
T2 construct: made in house; host or cells: E. coli XL-1 Blue
T2 sequence (P09211 whole entry): as above
Description: Glutathione S-transferase P1 (GSTP1) plays a significant role in cancer progression and chemotherapy resistance, with its overexpression diminishing chemotherapeutic efficacy across various tumor types. […] Enzyme inhibition assays with recombinant human GSTP1, kinetic analysis, molecular docking, and molecular dynamic simulations were employed. Enzymatic assays were performed in 0.1 M phosphate buffer (pH 6.5) at 30 °C, containing 1 mM EDTA, 1 mM GSH, and 1 mM CDNB. […] Graphical abstract
The human GST P1-1 gene from a K562 erythroleukemia cDNA library (GSTP1*A allele) was cloned into the pKXHP1 plasmid. This plasmid was transformed into E. coli XL-1 Blue cells via heat shock, grown on agar plates, and a single colony was cultured overnight at 37 °C in 2YT medium. […]
The enzyme activity of GSTP1 was measured using a spectrophotometric assay based on the conjugation of glutathione (GSH) to 1-chloro-2,4-dinitrobenzene (CDNB). […] The progress of the reaction was monitored by measuring the absorbance change at 340 nm, indicating the formation of the GSH-CDNB conjugate. Absorbance readings were recorded over 5 min using a SpectraMax M2 microplate reader. Percentage inhibition at each concentration was calculated, and IC₅₀ values were determined using GraphPad Prism 8.4. […]

GSTP1 = settings: covalent binding to tyrosine residues on GSTP1; ref Louie et al. 2016; cited from earlier work
[1] = CDNB as varied substrate, GSH near-saturating, read-out: Ki CDNB
[2] = GSH as varied substrate, CDNB near-saturating, read-out: Ki GSH

Compound | Type of inhibition CDNB (GSTP1-1; CDNB as varied substrate) | Ki (GSTP1-1; [1]) [nM] | Type of inhibition GSH (GSTP1-1; GSH as varied substrate) | Ki (GSTP1-1; [2]) [nM] | Type of inhibition GSH (GSTP1-1; GSH as varied substrate, listed as dimer form) | IC50 (recombinant human GSTP1; as restated in the discussion) [nM] | IC50 (GSTP1) [nM] | IC50 (recombinant human GSTP1; 0.1 M phosphate buffer pH 6.5, 30 °C, 1 mM EDTA, 1 mM GSH, 1 mM CDNB, 2.5% DMSO) [nM]
Nc1nc(SSc2nc(N)nc3c2ncn3C2CC(O)C(CO)O2)c2ncn(C3CC(O)C(CO)O3)c2n1 (stereo not drawn) [6-thio-2′-dG-Dimer] | Competitive | 723 | Mixed | 972 | mixed-type | 339 | – | –
C#CCCCN(c1nc(Cl)nc(Cl)n1)[C@H](CC(C)C)C(=O)OC [LAS17] | – | – | – | – | – | – | 500 | –
Nc1nc2c(ncn2[C@H]2C[C@H](O)[C@@H](CO)O2)c(=S)[nH]1 [Compound 6-thio-dG, 6-thio-2′-deoxyguanosine] | mixed-type | 11400 | Noncompetitive | 12300 | – | – | – | 15100
